Values quoted from earlier work as cited in publication PMC6271933, “Evaluation of the Toxicity of 5-Aryl-2-Aminoimidazole-Based Biofilm Inhibitors against Eukaryotic Cell Lines, Bone Cells and the Nematode Caenorhabditis elegans” (Molecules, 2014).

Tested on: HMO2, HepG2, HeLa and mouse lymphoma cells
Parameters: method as in PMID 12193030, PMID 15165143, PMID 17822294
Conditions: including HMO2, HepG2, HeLa and mouse lymphoma cells; cited from earlier work

| Compound | cytotoxicity to a variety of cell lines |
| --- | --- |
| COc1ccc(Cc2nc(N)n(C)c2Cc2ccc(O)c(OC)c2)cc1 [2g, naamine F] | cytotoxic |
| COc1ccc(Cc2nc(N)n(C)c2Cc2cc(O)c(OC)c(O)c2)cc1 [2f, naamine E] | cytotoxic |
| COc1ccc(Cc2[nH]c(=N)n(C)c2Cc2cc(OC)c(O)c(OC)c2)cc1 [2h, naamine G] | cytotoxic |
| COc1ccc(Cn2cc(Cc3ccc(OC)c(OC)c3)nc2/N=C2/NC(=O)N(C)C2=O)cc1 [2i, isonaamidine E] | cytotoxic |
